Columns and labels:
[1] = system: Prolyl 4-hydroxylase (Gallus gallus); test: Inhibition of prolyl 4-hydroxylase by chromatographic determination of [14C]-succinic acid on ion-exchange minicolumna at 100 ug/mL
[2] = system: Prolyl 4-hydroxylase (Gallus gallus); test: Inhibition of prolyl 4-hydroxylase by chromatographic determination of [14C]-succinic acid on ion-exchange minicolumna at 50 ug/mL

inhibition [1] | inhibition [2] | SMILES
13% | – | CCOc1ccc(NC(=O)c2ccc(-c3ccc(C(=O)Nc4ccc(OCC)cc4)cn3)nc2)cc1
– | 13% | CCOc1ccc(NC(=O)c2ccc(-c3ccccn3)nc2)cc1

Source: ChEMBL document CHEMBL1126923, “Novel inhibitors of prolyl 4-hydroxylase. 5. The intriguing structure-activity relationships seen with 2,2'-bipyridine and its 5,5'-dicarboxylic acid derivatives” (J Med Chem, 1993)
